How the values were obtained:
[1] = system: HT29; assay: MTT cytotoxicity, HT29; assay type: cell-based; settings: Homo sapiens, HT-29, HT29, Colonic, 72 hrs, read-out: LC50 (the source's name)
Protocol: (§1) The cytotoxicity of ZTP and ZTQ was analyzed by using human tumor cell lines. Human tumor cell lines were purchased from ATCC and NCI, and cultured in DMEM medium containing 10% FBS at 37° C. in 5% CO2 in an incubator. The cells grown to confluence were used for cytotoxicity analysis. The cells were digested with trypsin, washed with the culture medium, and then counted. 33 tumor cell lines were cultured. The cells were seeded at a density of 3000-6000 cells/well in a 96-well plate and incubated for 16-24 hrs. Then, various concentrations of ZTP or ZTQ dissolved in DMSO were added, and cultured for 72 hrs. The drug-treated cells and control cells were analyzed by MTT.

[2] = system: CNE-2Z; assay: MTT cytotoxicity, CNE-2Z; assay type: cell-based; settings: Homo sapiens, CNE2Z, Nasopharyngeal, 72 hrs, read-out: LC50 (the source's name)
Protocol: as §1

[3] = system: SK-MEL-5; assay: MTT cytotoxicity, SK-MEL-5; assay type: cell-based; settings: Homo sapiens, SK-MEL-5, Skin (melanoma), 72 hrs, read-out: LC50 (the source's name)
Protocol: as §1

[4] = system: Raf protein kinase; assay: Inhibition of Raf protein kinase activity (phosphorylated MEK, western blotting) in MDA-MB-321 cells; assay type: cell-based, human; settings: 1 hour treatment, phosphorylated MEK level, read-out: median inhibitory concentration (IC50) for inhibiting the activity of Raf protein kinase
From the text: Raf is a proto-oncogenic product, and activation of Raf is regulated with stimulation from extracellular cell growth factors. Once activated, Raf can activate MEK through phosphorylation, and further transmits an activation signal to ERK, thereby promoting the growth of tumor cells. In this test, the level of phosphorylated MEK in cells is indicative of the activity of Raf protein kinase in cells. MDA-MB-321 is a human derived breast cancer cell line, which is rich in Raf protein. We used MDA-MB-321 cells to detect whether ZTP and ZTQ can inhibit the activity of Raf protein kinase. MDA-MB-321 cells were subjected to adherent growth in the RPMI 1640 medium (GIBCO-BRL) containing 10% bovine calf serum at 37° C. in 5% CO2. The cells were treated with various concentrations of ZTP and ZTQ (0, 10 ng/ml, 100 ng/ml, 500 ng/ml, 1 μg/ml, and 10 μg/ml), and the cell proteins were collected 1 hour after treatment. The protein content was determined through Bradford method, and then the level of phosphorylated MEK was assayed through western blotting. Immunoblotting experiment: denatured polyacrylamide gel was used for separation of the proteins with a sample load of 60 μg of total proteins. The proteins were electro-transferred onto a PVDF membrane and blocked. […] The membrane was exposed to an X-ray film, and the results were analyzed by a gel imaging system. […]

[5] = system: 786-O; assay: MTT cytotoxicity, 786-O; assay type: cell-based; settings: Homo sapiens, 786-0, Renal, 72 hrs, read-out: LC50 (the source's name)
Protocol: as §1

[6] = system: SN12C; assay: MTT cytotoxicity, SN12C; assay type: cell-based; settings: Homo sapiens, Renal, 72 hrs, read-out: LC50 (the source's name)
Protocol: as §1

[7] = system: human liver cancer cells (HepG3B); assay: Transplantation model of human liver cancer (HepG3B) in nude mice; assay type: in vivo, nude mice (nu/nu); settings: HepG3B subcutaneous in nude mice; oral daily 5 days/week, 3 weeks; ZTP 30 mg/kg, ZTQ 60 mg/kg; lower = stronger
Protocol: T-cell deficient nude mice (nu/nu) of 6 weeks old were purchased from Charles River Laboratory, and housed and treated in a sterile environment following Institutional Animal Care & Use Committee Program. 48 mice were respectively subcutaneously inoculated on ribbed belly with 5×10^6 human liver cancer cells (HepG3B), human lung caner cells (NCI-H23), and human colon cancer cells (HCT-116) suspended in 0.2 ml HBSS/matrigel (50:50, V/V). When the tumor grew to have an average diameter of 7-8 mm and a volume of about 100-200 mm^3, 24 mice were picked up, and assigned to treatment groups (16 animals/2 groups), and a control group (8 animals). The 2 treatment groups were administered with the compounds ZTP and ZTQ dissolved in 15% Captsol respectively at a dose of 30 mg/kg and 60 mg/kg, and the control group only received an excipient (15% Captsol).
The same number of mice of each type was assigned to the control group and the treatment groups with the compounds ZTP and ZTQ respectively.
The dose schedule of the test compounds in the tumor transplanted nude mice was as follows: the compounds ZTP and ZTQ dissolved in 15% Captsol were daily orally administered as a 200 μl solution containing 0.75 mg of ZTP and 1.5 mg of ZTQ for 5 days/week over 3 consecutive weeks, followed by one-week break; and the control group was only administered with 200 μl of the placebo (15% Captsol) for 3 weeks, followed by 1 week of break. The two groups of animals were housed separately, and allowed to free access to food.
Evaluation of antitumor effect: the tumor size was measured every 3 or 4 days. The tumor volume was calculated using the equation below: […], in which a denotes the width (the shorter diameter), and b denotes the length (the longer diameter). Relative tumor volume (RTV) of each tumor refers to the ratio of the volume at a specified time to that at the beginning of the treatment. The average RTV for each treatment group was calculated. The antitumor activity was determined by calculating the tumor growth inhibition using a formula below. […]

[8] = MTT cytotoxicity, MEF normal mouse fibroblast; assay type: cell-based; settings: MEF normal mouse fibroblasts; MEF, Normal mouse fibroblast; 72 hrs, MTT; read-out: LC50
Protocol: [Worded in the source for another organism; this organism is reported under the same test.] as §1

[9] = system: MEF; assay: MTT cytotoxicity, MEF normal mouse fibroblast; assay type: cell-based; settings: cells still grow well at a concentration up to 30 μm
Protocol: [Worded in the source for another organism; this organism is reported under the same test.] as §1

[10] = system: U-251; assay: MTT cytotoxicity, U-251; assay type: cell-based; settings: Homo sapiens, U-251, Glioblastoma, 72 hrs, read-out: LC50 (the source's name)
Protocol: as §1

[11] = system: Caki-1; assay: MTT cytotoxicity, Caki-1; assay type: cell-based; settings: Homo sapiens, Caki-1, Renal, 72 hrs, read-out: LC50 (the source's name)
Protocol: as §1

[12] = system: NCI-H23; assay: MTT cytotoxicity, NCI-H23; assay type: cell-based; settings: Homo sapiens, NCI-H23, Lung, 72 hrs, read-out: LC50 (the source's name)
Protocol: as §1

SMILES | CC50 [1] [µM] | CC50 [2] [µM] | CC50 [3] [µM] | IC50 [4] [µM] | CC50 [5] [µM] | CC50 [6] [µM] | TGI (T/C×100) [7] [%] | CC50 at 72 h [8] [µM] | susceptibility of normal mouse fibroblasts (MEFs) [9] | CC50 [10] [µM] | CC50 [11] [µM] | CC50 [12] [µM]
CNC(=O)c1cc(Sc2ccc(NC(=S)Nc3ccc(Cl)c(C(F)(F)F)c3)cc2)ccn1 [ZTQ, N-[4-chloro-3-(trifluoromethyl)phenyl]-[4-(N-methyl-formamide)(4-pyridylthio)phenyl]-thiourea] | 0.92 | 1.31 | 1.54 | 0.02 | 1.26 | 2.2 | 1.75 | > 30 | insusceptible | 2.5 | 0.91 | 0.71
CNC(=O)c1cc(Oc2ccc(NC(=S)Nc3ccc(Cl)c(C(F)(F)F)c3)cc2)ccn1 [ZTP, N-[4-chloro-3-(trifluoromethyl)phenyl]-[4-(N-methyl-formamide)(4-pyridyloxy)phenyl]-thiourea] | 1.19 | 1.89 | 1.99 | 0.045 | 1.75 | 3.21 | 13 | > 30 | insusceptible | 3.67 | 1.12 | 0.89

— patent US20130225641A1, “ANTICANCER COMPOUNDS AND PREPARATION METHODS THEREOF” (priority 2010, published 2013)
